# Patent publication US20150258096A1, “METHODS AND COMPOSITIONS FOR TREATMENT OF TH2-MEDIATED AND TH17-MEDIATED DISEASES” (THE REGENTS OF THE UNIVERSITY OF CALIFORNIA, priority 2012, published 2015)
# Tests used:
# [1] = system: WT CD11c^+ BM cells; experiment: Co-culture of WT CD11c+ BM cells with OT-2 CD4+ T cells, IL-4 by ELISA (pro-Th2 phenotype); format: cell-based, mouse; settings: H-89 10 μM; CE3F4 50 μM or 25 μM (method); 30 min at 37° C.; FIG. 9b
# Method: Cytokine levels in the supernatant were determined using ELISA kits for IL-4, IL-5, IL-13, IL-10, IFNγ, TNFα and IL-17A (eBioscience, La Jolla, Calif.) following the manufacturers' instructions as published^17.
# WT BM-derived CD11c^+ cells were cultured and then incubated with a PKA inhibitor (H-89, 10 μM), with or without pretreatment with pertussis toxin (PTX, 100 μg/ml, 18 h), or with EPAC inhibitor (CE3F4, 25 μM) for 30 min at 37° C., then washed and co-cultured with OT-2 T cells.
# [2] = system: Gnas^ΔCD11c CD11c^+ BM cells; experiment: Co-culture of Gnas^ΔCD11c CD11c+ BM cells with OT-2 CD4+ T cells, IL-4 by ELISA (pro-Th2 phenotype); format: cell-based, mouse
# Method: For the inhibition of Th2 response by cAMP, fl/fl or Gnas^ΔCD11c BM-derived CD11c^+ cells were cultured as above, then, incubated with 8-CPT-cAMP (50 μM) for 24 h, washed and then co-cultured with OT-2 T cells.
# [3] = system: CCL2 expression in Gnas^ΔCD11c CD11c^+ BM cells; experiment: CCL2 mRNA levels (qPCR) in CD11c+ BM cells; format: cell-based, mouse; settings: Gnas^ΔCD11c CD11c+ BM cells incubated with 8-CPT-cAMP 50 μM; FIG. 9g
# Method: Isolation of RNA was carried out using an RNeasy Mini Kit (QIAGEN, Valencia, Calif.) according to the manufacturer's instructions. The cDNA was synthesized using Superscript III First-Strand system (Invitrogen). Quantitative PCR analysis was performed as described previously^54. SYBR Green PCR Master Mix was used for real-time PCR (7300 system, Applied Biosystems). Samples were run in triplicate and normalized by a housekeeping gene (mouse GAPDH).
# [4] = system: WT (B6) and Gnas^ΔCD11c recipient mice; experiment: Adoptive transfer of OVA-loaded Gnas^ΔCD11c CD11c+ BM cells treated with or without 8-CPT-cAMP; format: in vivo, mouse; settings: BM cells treated in vitro with 50 μM 8-CPT-cAMP before i.n. transfer, 2×10^5 cells/recipient
# Method: FIG. 14: Adoptive transfer of CD11c^+ BM cells from Gnas^ΔCD11c mice induces a Th2 bias in vivo, a response that is inhibited by a cell-permeable cAMP analogue: (a) OVA-specific IL-4 response by OT-2 CD4^+ T cells co-cultured with cell-permeable cAMP (8-CPT-cAMP, 50 μM)-treated CD11c^+ BM cells, (b) Protocol of the adoptive transfer. OVA-loaded Gnas^ΔCD11c CD11c^+ BM cells were incubated in the absence and presence of 50 μM 8-CPT-cAMP (CPT) in vitro prior to i.n. transfer to WT (B6 mice) and Gnas^ΔCD11c recipients (2×10^5 cells/recipient), (c) IL-4 levels of anti-CD3/28 Ab-stimulated CD4^+ T cells (spleen) from WT or Gnas^ΔCD11c recipients (ELISA), (d) Serum levels of IgE and IgG1 from WT and Gnas^ΔCD11c mice that received Gnas^ΔCD11c CD11c^+ BM cells loaded with OVA with/without CPT, (e) Lung histology from WT and Gnas^ΔCD11c recipients (magnification ×100, scale bar: 100 μm) (Data are mean±s.e.m, n=3-4 in each group; * p<0.05, ** p<0.01, p<0.001).
# Adoptive transfer of OVA-pulsed Gnas^ΔCD11c CD11c^+ BM cells into mice was performed as described previously^55. […] 1 day after the last OVA challenge, mice were sacrificed and assessed by lung histology, measurement of serum immunoglobulins and cytokine production.
# [5] = system: Wild-type B6 mice; experiment: Immunization with OVA, alum and cAMP-elevating agent; OVA-specific IL-17 (ELISA); format: in vivo, mouse; settings: i.p. twice two weeks apart, OVA 50 μg/mice with alum; colforsin 1 mg/kg, IBMX 5 mg/kg; spleen cells of day 28 incubated 3 days with OVA; FIG. 16
# Method: FIG. 16 cAMP agents provoke IL-17 responses: Wild-type B6 mice were immunized intraperitoneally (i.p.) twice two weeks apart with OVA (50 μg/mice) with and without alum (20 mg/mice), and colforsin (CF; a cAMP elevating drug that is approved for human use in Japan, 1 mg/kg), IBMX (a PDE inhibitor, 5 mg/kg), or solvent only as a control; on day 28, single-cell suspensions were prepared from the spleens and incubated for 3 days with OVA (200 μg/mL) as we described earlier (16); IL-17 levels were then detected (ELISA); *p<0.05 and **p<0.01 compared with OVA/alum-immunized group, n=4/group.
# Based on the data presented above, co-immunization with antigen and a cAMP-elevating agent can induce a Th17 response. To promote stimulation of the same DC with antigen and cAMP agent, both were adsorbed to alum, an adjuvant used in humans (22), and immunized C57BL/6 (B6) mice with the combination.
compound,measurement,setting,value
O=S(=O)(NCCNC/C=C/c1ccc(Br)cc1)c1cccc2cnccc12 [H-89],pro-Th2 phenotype of WT CD11c+ BM cells (IL-4 levels of co-cultured OT-2 CD4+ T cells),[1],promoted their pro-Th2 phenotype
"Nc1ncnc2c1nc(Sc1ccc(Cl)cc1)n2[C@@H]1O[C@@H]2COP(=O)([O-])O[C@H]2[C@H]1O.[Na+] [CPT, 8-(4-Chlorophenylthio) adenosine 3′,5′-cyclic monophosphate sodium salt]",IL-4 production by OT-2 CD4+ T cells co-cultured with treated Gnas^ΔCD11c BM cells,"[2]; 8-CPT-cAMP 50 μM, 24 h, in vitro, FIG. 14a",abolished the subsequent IL-4 production
same,"CCL2 expression (mRNA, qPCR)",[3],decreased CCL2 expression
same,"development of Th2 bias in recipients (IL-4 of splenic CD4+ T cells, serum IgE)",[4]; FIG. 14c-d,inhibited development of Th2 bias
same,airway inflammation in recipients (lung histology),[4]; FIG. 14e,inhibited development of Th2 bias and airway inflammation
"CC(C)Cn1c(=O)n(C)c(=O)c2[nH]cnc21 [IBMX, 3-isobutyl-1-methylxanthine]",OVA-specific IL-17 response,[5],provoked a robust OVA-specific IL-17 response
"O=P1(O)OCC2OC(n3cnc4c(Nc5ccccc5)ncnc43)C(O)C2O1 (stereo not drawn) [N6, Phenyladenosine-3′,5′-cyclic monophosphate]",pro-Th2 phenotype of Gnas^ΔCD11c CD11c+ BM cells (IL-4 levels of co-cultured OT-2 CD4+ T cells),"[2]; BM cells incubated with cAMP analogue 50 μM for 24 h, washed, co-cultured with OT-2 T cells, FIG. 9a",abolished the pro-Th2 phenotype
CC1CCc2c(cc(Br)c(F)c2Br)N1C=O (stereo not drawn) [CE3F4],pro-Th2 phenotype of WT CD11c+ BM cells (IL-4 levels of co-cultured OT-2 CD4+ T cells),[1],"but not with an EPAC inhibitor (CE3F4), promoted their pro-Th2 phenotype"
C=C[C@@]1(C)CC(=O)[C@]2(O)[C@@]3(C)[C@@H](O)CCC(C)(C)[C@@H]3[C@H](O)[C@H](OC(C)=O)[C@@]2(C)O1 [colforsin],OVA-specific IL-17 response,[5],provoked a robust OVA-specific IL-17 response
